Test results published in patent US6127342A, “Method for preventing or treating a lung disease caused by active oxygen and free radical injury” (Teijin Limited, priority 1991, dated 2000).

Legend:
[1] = tested on: ovalbumin inhalation model using guinea pigs; assay: Airway responsiveness (Ach PC200) in ovalbumin inhalation model; format: in vivo; settings: guinea pig; 2% OA aerosol 10 days; 10 mg/kg i.p. twice daily for 10 days; FIG. 3
Experimental: (§1) Male Hartley guinea pigs weighing 350-400 g were divided into three groups, i.e., the control group, the ovalbumin (OA) group and the OA+γ-GCE group. The control group was allowed to inhale an aerosol of physiological saline for 7-8 minutes per day for 10 consecutive days. The OA group was allowed to inhale an aerosol of 2% OA in the same manner. The OA+γ-GCE group was allowed to similarly inhale an aerosol of 2% OA together with intraperitoneal administration of 10 mg/kg of γ-GCE twice daily for 10 days.
Evaluation of efficacy was performed by measuring (1) the minimum provocative concentration of acetylcholine (Ach) at which the respiratory resistance reached more than 200% of baseline (Ach Provocative Concentration 200) both before and after inhalation for 10 days, together with measuring (2) the number of pulmonary membrane β-receptors and adenylate cyclase activity, and (3) xanthine oxidase activities in lung tissue, bronchoalveolar lavage fluid and serum, following 10 days of inhalation.
Each of the measurements were made using 6 animals in each group, and the results were expressed as mean ± standard deviation. Evaluation of significance was performed using Dunnett's test. Cases of P being less than 0.05 were considered to be statistically significant.

xanthine oxidase = assay: Xanthine oxidase activities in lung tissue, bronchoalveolar lavage fluid and serum; format: in vivo; settings: guinea pig; OA inhalation 10 days + 10 mg/kg i.p. twice daily
Experimental: as §1, with “10 days. […] Each of the measurements were made using 6 animals in each group, and the results were expressed as mean ± standard deviation. Evaluation of significance was performed using Dunnett's test. Cases of P being less than 0.05 were considered to be statistically significant.” for “10 days.”

[2] = tested on: pulmonary membrane β-receptors; assay: Number of pulmonary membrane β-receptors in ovalbumin inhalation model; format: in vivo; settings: guinea pig; 2% OA aerosol 10 days; 10 mg/kg i.p. twice daily for 10 days; FIG. 4
Experimental: as §1, with “10 days. […] Each of the measurements were made using 6 animals in each group, and the results were expressed as mean ± standard deviation. Evaluation of significance was performed using Dunnett's test. Cases of P being less than 0.05 were considered to be statistically significant.” for “10 days.”

[3] = tested on: cardiac muscle mitochondria; assay: Glutathione content of cardiac muscle mitochondria after coronary ischemia-reperfusion; format: in vivo; settings: dog; for effect on reduction of mitochondrial glutathione during reperfusion / Glutathione content of cardiac muscle mitochondria, GSH + GSSG, normal area / Glutathione content of cardiac muscle mitochondria, GSH, normal area / Glutathione content of cardiac muscle mitochondria, GSSG, normal area / Glutathione content of cardiac muscle mitochondria, GSH + GSSG, ischemic or reperfused area / Glutathione content of cardiac muscle mitochondria, GSH, ischemic or reperfused area / Glutathione content of cardiac muscle mitochondria, GSSG, ischemic or reperfused area: 10 mg/kg i.v. just before reperfusion; for Glutathione content of cardiac muscle mitochondria, GSH + GSSG, normal area / Glutathione content of cardiac muscle mitochondria, GSH, normal area / Glutathione content of cardiac muscle mitochondria, GSSG, normal area / Glutathione content of cardiac muscle mitochondria, GSH + GSSG, ischemic or reperfused area / Glutathione content of cardiac muscle mitochondria, GSH, ischemic or reperfused area / Glutathione content of cardiac muscle mitochondria, GSSG, ischemic or reperfused area: 2 h ischemia / 1 h reperfusion
Experimental: After anesthetizing 52 adult mongrel dogs of either sex weighing ca. 10 kg by intraperitoneal administration of 50 mg/kg of sodium pentobarbital, breathing tubes were immediately intubated endotracheally and artificial ventilation was continued using a Harvard ventilator. Electrocardiogram electrodes were attached, and monitoring and recording were continued throughout the experiment. Following insertion of cannulas in the right femoral vein and right femoral artery, the cannulas were used for continuous intravenous drip of physiological saline to replenish water or administration of the test preparation, and monitoring of arterial blood pressure, respectively. After performing left thoracotomy in the fourth or fifth intercostal space, the pericardium was torn to expose the heart. Ischemia was induced by ligating the left anterior descending coronary artery immediately distal to the first diagonal branch, while reperfusion was performed by subsequently removing that ligation.
The animals were divided into four groups. Group 1 (n=9) was subjected to ischemia for 2 hours, group 2 (n=17) was subjected to ischemia for 2 hours followed by reperfusion for 1 hour, group 3 (n=10) was subjected to ischemia for 2 hours followed by reperfusion for 1 hour plus intravenous injection of 10 mg/kg of γ-GCE just before reperfusion, and group 4 (n=16) was subjected to 2 hours of ischemia followed by 1 hour of reperfusion plus intravenous injection of 10 mg/kg of reduced glutathione (GSH, control drug) just before reperfusion.
Evaluation of ischemia-reperfusion injury was performed, following completion of ischemia-reperfusion, by measuring (1) glutathione content of mitochondria, and (2) mitochondrial function, and so on, at the ischemic or reperfused area and the normal area of the heart. Mitochondria was obtained by removing the heart immediately after the end of ischemia or reperfusion, washing with cold physiological saline, promptly cutting out the ischemic or reperfused area and the normal area, and immediately performing preparation from the respective area according to the method described by Hatefi, et al. in Arch. Biochem. Biophys., Vol. 94, pp. 148-155, 1961.
The glutathione content of the mitochondria was measured by applying the method described by Tietze in Anal. Biochem., Vol. 27, pp. 502-522, 1969 to the supernatant obtained by immediately adding 1/10 vol of 27.5% (w/v) sulfosalicylic acid dihydrate aqueous solution to the prepared mitochondria suspension followed by protein denaturation and centrifugation. Evaluation of mitochondrial function was performed according to the method described by Sugiyama, et al. in Am. Heart J., Vol. 100, pp. 829-837, 1980, by polarographically measuring respiratory ability using an oxygen electrode and determining the rate of oxygen consumption is state III (St. III O2) and the respiratory control index (RCI).

[4] = tested on: pulmonary membrane adenylate cyclase; assay: Pulmonary membrane adenylate cyclase activity in ovalbumin inhalation model; format: in vivo; settings: guinea pig; 2% OA aerosol 10 days; 10 mg/kg i.p. twice daily for 10 days; isoproterenol-stimulated and baseline; FIG. 5
Experimental: as §1, with “10 days. […] Each of the measurements were made using 6 animals in each group, and the results were expressed as mean ± standard deviation. Evaluation of significance was performed using Dunnett's test. Cases of P being less than 0.05 were considered to be statistically significant.” for “10 days.”

[5] = in vivo; cited from earlier work

| SMILES | effect on increase in airway responsiveness (decrease in log[Ach PC200]) after OA inhalation [1] | Xanthine oxidase activity, bronchoalveolar lavage fluid (xanthine oxidase) [mU/ml] | Xanthine oxidase activity, lung tissue (xanthine oxidase) [mU/g tissue] | Xanthine oxidase activity, serum (xanthine oxidase) [mU/ml] | xanthine oxidase values compared with the OA group, lung tissue and bronchoalveolar lavage fluid (xanthine oxidase) | effect on the reduction in pulmonary membrane β-receptors after OA inhalation [2] | effect on reduction of mitochondrial glutathione during reperfusion [3] | mitochondrial glutathione levels (GSH, GSH+GSSG) of reperfused area relative to normal area after reperfusion ([3]; 10 mg/kg just before reperfusion) | Glutathione content of cardiac muscle mitochondria, GSH + GSSG, normal area [3] | Glutathione content of cardiac muscle mitochondria, GSH, normal area [3] | Glutathione content of cardiac muscle mitochondria, GSSG, normal area [3] | Glutathione content of cardiac muscle mitochondria, GSH + GSSG, ischemic or reperfused area [3] | Glutathione content of cardiac muscle mitochondria, GSH, ischemic or reperfused area [3] | Glutathione content of cardiac muscle mitochondria, GSSG, ischemic or reperfused area [3] | effect on the reduction in pulmonary membrane adenylate cyclase activity after OA inhalation [4] | half-life in the blood when administered [5] |
| --- | --- | --- | --- | --- | --- | --- | --- | --- | --- | --- | --- | --- | --- | --- | --- | --- |
| CCOC(=O)[C@H](CS)NC(=O)CC[C@H](N)C(=O)O [γ-GCE, γ-L-glutamyl-L-cysteine ethyl ester] | inhibited (1) the remarkable increase in airway responsiveness | 9.43 ± 0.95 | 33.3 ± 4.02 | 10.0 ± 1.77 | significantly lower than those of the OA group | inhibited | significantly suppress further reduction of glutathione during the reperfusion | 85-88% | 4.06 ± 0.52 | 3.68 ± 0.54 | 0.38 ± 0.09 | 3.57 ± 0.46 | 3.12 ± 0.40 | 0.45 ± 0.15 | inhibited | – |
| N[C@@H](CCC(=O)N[C@@H](CS)C(=O)NCC(=O)O)C(=O)O [GSH, reduced glutathione, reference compound] | – | – | – | – | – | – | no such effects were observed | – | 3.94 ± 0.33 | 3.67 ± 0.37 | 0.27 ± 0.08 | 2.44 ± 0.57 | 2.17 ± 0.52 | 0.27 ± 0.09 | – | several minutes |
